Test results reported in US20120283216A1, “FUNGICIDAL 2-(BICYCLIC ARYLOXY)CARBOXAMIDES” (priority 2009, published 2012).

Legend:
Type in all cases: in vivo
Septoria tritici = assay: Test B: wheat leaf blotch, preventive spray on wheat seedlings, visual disease rating; conditions: preventive spray at 40 ppm, rated after 48 h + 19 days; for pest or weed control at 40 ppm: Zymoseptoria tritici, 504 h, read-out: Test B disease control rating (100 = 100% disease control, 0 = no disease control relative to the controls)
Excerpt: (§1) General protocol for preparing test suspensions for Tests A-C: the test compounds were first dissolved in acetone in an amount equal to 11% of the final volume and then suspended at the desired concentration (in ppm) in acetone and purified water (50/50 mix by volume) containing 250 ppm of the surfactant Trem® 014 (polyhydric alcohol esters). The resulting test suspensions were then used in Tests A-C. Spraying a 40 ppm test suspension to the point of run-off on the test plants was the equivalent of a rate of 800 g/ha. The test suspension was sprayed to the point of run-off on wheat seedlings. The following day the seedlings were inoculated with a spore suspension of Septoria tritici (the causal agent of wheat leaf blotch) and incubated in a saturated atmosphere at 20° C. for 48 h, and then moved to a growth chamber at 20° C. for 19 days, after which time disease ratings were visually made. Results for Tests A-C are given in Table A. In the Table, a rating of 100 indicates 100% disease control and a rating of 0 indicates no disease control (relative to the controls). A dash (-) indicates no test results. All results are from applications of 40 ppm.

Botrytis cinerea = assay: Test C: tomato botrytis, preventive spray on tomato seedlings, visual disease rating; conditions: preventive spray at 40 ppm, rated after 48 h + 3 days; for pest or weed control at 40 ppm: Botrytis cinerea, 120 h, read-out: Test C disease control rating (100 = 100% disease control, 0 = no disease control relative to the controls)
Excerpt: General protocol for preparing test suspensions for Tests A-C: the test compounds were first dissolved in acetone in an amount equal to 11% of the final volume and then suspended at the desired concentration (in ppm) in acetone and purified water (50/50 mix by volume) containing 250 ppm of the surfactant Trem® 014 (polyhydric alcohol esters). The resulting test suspensions were then used in Tests A-C. Spraying a 40 ppm test suspension to the point of run-off on the test plants was the equivalent of a rate of 800 g/ha.
The test suspension was sprayed to the point of run-off on tomato seedlings. The following day the seedlings were inoculated with a spore suspension of Botrytis cinerea (the causal agent of tomato botrytis) and incubated in saturated atmosphere at 20° C. for 48 h, and then moved to a growth chamber at 27° C. for 3 additional days, after which time disease ratings were visually made.
Results for Tests A-C are given in Table A. In the Table, a rating of 100 indicates 100% disease control and a rating of 0 indicates no disease control (relative to the controls). A dash (-) indicates no test results. All results are from applications of 40 ppm.

[1] = test system: Blumeria graminis f. sp. tritici; assay: Test A: wheat powdery mildew, preventive spray on wheat seedlings, visual disease rating; conditions: preventive spray at 40 ppm, rated 8 days after inoculation; for pest or weed control at 40 ppm: Blumeria graminis, 192 h, read-out: Test A disease control rating (100 = 100% disease control, 0 = no disease control relative to the controls)
Excerpt: as §1, with “spore dust” for “spore suspension”, “of Blumeria graminis f. sp. tritici,” for “of Septoria tritici”, “wheat powdery mildew)” for “wheat leaf blotch)”, “in” for “in a saturated atmosphere at 20° C. for 48 h, and then moved to”, “for 8” for “for 19”

Compound | Test B disease control rating (100 = 100% disease control, 0 = no disease control relative to the controls) (Septoria tritici) [%] | Test C disease control rating (100 = 100% disease control, 0 = no disease control relative to the controls) (Botrytis cinerea) [%] | Test A disease control rating (100 = 100% disease control, 0 = no disease control relative to the controls) [1] [%] | pest or weed control at 40 ppm (Septoria tritici) [%] | pest or weed control at 40 ppm (Botrytis cinerea) [%] | pest or weed control at 40 ppm [1] [%]
CCC(Oc1cnc2ccc(I)cc2c1)C(=O)NC(C)(C)COC (single isomer, unassigned) [Compound 61] | 100 | 99 | 98 |  |  | 
CCC(Oc1cnc2ccc(I)cc2c1)C(=O)NC(C)(C)COC (single isomer, unassigned) [Compound 62] | 0 | 7 | 0 |  |  | 
CCC(Oc1ccc2ccc(Br)cc2c1)C(=O)NC(C)(C)C#N (stereo not shown) [Compound 1] | 100 | 100 | 91 |  |  | 
CCC(Oc1ccc2ccc(OC)cc2c1)C(=O)NC(C)(C)C (stereo not shown) [Compound 3, N-(1,1-dimethylethyl)-2-[(7-methoxy-2-naphthalenyl)oxy]butan amide] |  |  |  | 99 | 99 | 100
C#CC(C)(C)NC(=O)C(CC)Oc1ccc2ccc(OC)cc2c1 (stereo not shown) [Compound 4] | 100 | 100 | 97 |  |  | 
CCC(Oc1ccc2ccc(OC(F)F)cc2c1)C(=O)NC(C)(C)C (stereo not shown) [Compound 5] |  |  |  | 99 | 100 | 99
C#CC(C)(C)NC(=O)C(CC)Oc1ccc2ccc(OC(F)F)cc2c1 (stereo not shown) [Compound 6] | 100 | 100 | 98 |  |  | 
CCC(Oc1ccc2ccc(Br)cc2c1)C(=O)NC(C)(C)COC (stereo not shown) [Compound 7, 2-[(7-bromo-2-naphthalenyl)oxy]-N-(2-methoxy-1,1-dimethylethyl)butanamide] |  |  |  | 99 | 99 | 100
CCC(Oc1ccc2ccc(Br)cc2c1)C(=O)NC(C)(C)C (stereo not shown) [Compound 8, 2-[(7-bromo-2-naphthalenyl)oxy]-N-(1,1-dimethylethyl)butanamide] |  |  |  | 99 | 99 | 100
CCC(Oc1ccc2ccc(Br)cc2c1)C(=O)NN(C)C (stereo not shown) [Compound 9] |  |  |  | 99 | 99 | 69
CCC(Oc1ccc2ccc(Br)cc2c1)C(=O)NC(C)(C)COP(C)(C)=O (stereo not shown) [Compound 10] | 99 | 98 | 21 |  |  | 
CCC(Oc1ccc2ccc(Br)cc2c1)C(=O)NC(C)(C)CNC=O (stereo not shown) [Compound 11] | 99 | 100 | 21 |  |  | 
CCC(Oc1ccc2ccc(Br)cc2c1)C(=O)NC(C)(C)CNC(=O)OC(C)(C)C (stereo not shown) [Compound 12] | 93 | 0 | 0 |  |  | 
CCC(Oc1ccc2ccc(Br)cc2c1)C(=O)NC1(C)CC1 (stereo not shown) [Compound 13] |  |  |  | 98 | 99 | 50
CCC(Oc1ccc2ccc(Br)cc2c1)C(=O)NC(C)(C)CN (stereo not shown) [Compound 14] | 99 | 99 | 90 |  |  | 
CCC(Oc1ccc2ccc(Br)cc2c1)C(=O)NC(C)(C)CN=CN(C)C (stereo not shown) [Compound 15, 2-[(7-bromo-2-naphthalenyl)oxy]-N-[2-[[(dimethylamino)methylene]amino]-1,1-dimethylethyl]butanamide] |  |  |  | 100 | 100 | 43
CCC(Oc1ccc2ccc(Br)cc2c1)C(=O)NC(C)(C)CO (stereo not shown) [Compound 16, 2-[(7-bromo-2-naphthalenyl)oxy]-N-(2-hydroxy-1,1-dimethylethyl)-butanamide] |  |  |  | 99 | 100 | 97
CCC(Oc1ccc2ccc(Br)cc2c1)C(=O)NC(C)(C)C=O (stereo not shown) [Compound 17] | 100 | 99 | 89 |  |  | 
CCC(Oc1ccc2ccc(Br)cc2c1)C(=O)NC(C)(C)COC=O (stereo not shown) [Compound 18] | 99 | 100 | 99 |  |  | 
CCC(Oc1ccc2ccc(Br)cc2c1)C(=O)NC(C)(C)C1CO1 (stereo not shown) [Compound 19] | 60 | 98 | 0 |  |  | 
CCC(Oc1ccc2ccc(Br)cc2c1)C(=O)NC(C)(C)COCOC (stereo not shown) [Compound 20, 2-[(7-bromo-2-naphthalenyl)oxy]-N-[2-(methoxymethoxy)-1,1-dimethylethyl]butanamide] |  |  |  | 99 | 98 | 98
CCC(Oc1ccc2ccc(C#N)cc2c1)C(=O)NC(C)(C)COC (stereo not shown) [Compound 21] | 99 | 99 | 91 |  |  | 
C#CC(C)(C)NC(=O)C(CC)Oc1ccc2ccc(Br)cc2c1 (stereo not shown) [Compound 31] |  | 100 | 100 |  |  | 
COC(Oc1ccc2ccc(Br)cc2c1)C(=O)NC(C)(C)CO (stereo not shown) [Compound 98] |  | 99 | 64 |  |  | 
COCOCC(C)(C)NC(=O)C(OC)Oc1ccc2ccc(Br)cc2c1 (stereo not shown) [Compound 99] |  | 100 | 96 |  |  | 
COC(Oc1ccc2ccc(Br)cc2c1)C(=O)NC(C)(C)C (stereo not shown) [Compound 100] |  |  |  |  | 99 | 100
C#Cc1ccc2ncc(OC(CC)C(=O)NC(C)(C)COC)cc2c1 (stereo not shown) [Compound 148] |  | 100 | 100 |  |  | 
